Like-named read-outs stand apart in the source and are kept apart here.
Legend:
LH [1] = test: Plasma LH by radioimmunoassay in orchidectomized male rats; assay type: in vivo, rat; conditions: for plasma LH level: repeated examination
Protocol: (§1) Four weeks following orchidectomy, groups of rats were treated with one of the following drug doses via tail vein injection: E2-CDS 0.03, 0.3, and 3 mg/kg. Blood samples were collected by orbital sinus puncture under light ether anesthesia. The samples were stored at 4° C. for one hour and centrifuged at 1,000 g for 10 minutes. Plasma was separated and stored at −80° C. until assayed. Plasma LH concentrations from individual samples were measured by double antibody radioimmunoassay kits obtained from Amersham Pharmacia Biotech, Rome, Italy. […] The limit of detection was 15 pg/ml.
(§2) Behavioral changes were analyzed using the Mann-Whitney U test (Siegel, Nonparametric Statistics for the Behavioral Sciences, New York; McGraw-Hill Book Company, Inc., 1956). The Fisher exact test was used for percentage comparisons (Zar, Biostatistical Analysis, Prentice Hall, Inc., Englewood Cliffs, N.J., 1974). Serum LH data were analyzed for each time and treatment group by analysis of variance (ANOVA) followed by Bonferroni posthoc test.

castrated male rats = test: Male rat copulatory behavior after orchidectomy; assay type: in vivo
Protocol: Adult male Sprague Dawley rats (300-400 g) from Charles River Hungary Ltd., Godollo, Hungary, were used. Animals were kept in community cages (4 animals/cage) in a climate-controlled room (23±2° C.), with a 14 hour light, 10 hour dark cycle of artificial lighting, using reversed light/dark cycle. […] These hormones were dissolved in sunflower oil.
After establishment of basal behaviors as discussed below, selected animals were orchidectomized via a single midventral incision and were rehoused.
After repeated testing of animals recovered from orchidectomy as discussed below, rats were divided into four groups and treated intravenously, via a single tail vein injection, with one of the following: group 1: control (27% hydroxypropyl-β-cyclodextrin); group 2: 0.03 mg/kg E2-CDS; group 3: 0.3 mg/kg E2-CDS; and group 4: 3 mg/kg E2-CDS.
Mating was observed during the dark cycle in a plexi observation cage in a room where only a dim red light was on. The male was placed in the observation cage 5 minutes prior to the female.
The following parameters were then measured: • Mount latency (ML): the time from the introduction of the female to the initial mount or intromission; • Intromission latency (IL): the time from introduction of the female to the first intromission; and • Ejaculatory latency (EL): the time from the first intromission to ejaculation.
Sessions were considered negative if IL exceeded 15 minutes.
To establish basal behavior, each male was tested every 5 days until four successive and consistent behavioral patterns were achieved. This pretesting lasted for about four weeks. Approximately half of the animals tested were deemed suitable for orchidectomy.
Twenty-eight days after healing from orchidectomy, the animals were tested again (Day 0) and divided into 4 experimental groups. Only animals displaying ejaculation latencies greater than 15 minutes were included in the study.
Tests of male sexual behavior were conducted 3, 7, 14, 21, 28, 35 and 42 days after drug administration or until the effect disappeared, i.e. until no statistically significant difference was found between groups during two consecutive tests.
Behavioral patterns and related times were recorded manually by skilled observers.
as §1, §2
The testing described above was repeated using a dose of 0.03 mg/kg administered as a single i.v. injection, and a dose of 0.01 mg/kg with daily i.v. administration for 10 days. E2-CDS stock solution (40%) was diluted in 27% HPβCD solution.
The copulatory behavior of E2-CDS treated groups was compared to that of the HPβCD control group at 1, 3, 7, 14, and 21 days after i.v. drug administration in the 0.03 mg/kg group and at 1, 3, 7, 14 and 21 days after initial i.v. drug administration in the 0.01 mg/kg×10 days group.

morphine-dependent rats = conditions: cited from earlier work
LH [2] = conditions: cited from earlier work
LH [3] = conditions: cited from earlier work; remark: listed apart in the source
2OHE1/16OHE1 = test: Phase I: urinary estrone metabolites 2OHE1/16OHE1; assay type: in vivo, human; conditions: for amount of urinary 16OHE1 relative to day 1: female, human, in vivo
From the text: A brief evaluation of the results follows:

[4] = 3.0 mg/kg single i.v., days 14, 21 and 28

## CN1C=CCC(C(=O)O[C@H]2CC[C@H]3[C@@H]4CCc5cc(O)ccc5[C@H]4CC[C@]23C)=C1 [E2-CDS, 17β-[(1-methyl-1,4-dihydro-3-pyridinyl)carbonyloxy]estra-1,3,5(10)-trien-3-ol]
LH [1]; 0.01 mg/kg i.v., 10 daily injections
  plasma LH level: significantly reduced at the dose of 0.01 mg/kg (10 daily injections) from day 3 to day 14
LH [1]; 0.03 mg/kg single injection
  plasma LH level: significantly reduced on day 3 only
LH [1]; 0.3 mg/kg single i.v.
  plasma LH levels: significantly reduced the LH levels on days 1, 3, and 7
LH [1]; 3 mg/kg single i.v.
  plasma LH levels: suppressed significantly throughout 28 days
Castrated male rats; 0.03 mg/kg single i.v., first study
  effect on copulatory behavior: no statistically significant effect
Castrated male rats; 0.03 mg/kg single i.v., repeated study
  sexual activity: improved sexual activity, but it was not statistically significant in any observations
Castrated male rats; 0.3 mg/kg single i.v.
  mount frequency: significantly increased on day 7
  mount latency: sharply reduced from day 7 through day 28
Castrated male rats; 3.0 mg/kg single i.v.
  intromission performance: improved in a statistically significant manner from day 14 through day 28
  mount latency: sharply reduced from day 7 through day 28
Castrated male rats; [4]
  intromission frequency: statistically significant increase in intromission frequency
  intromission latency: decrease in intromission latency
Castrated male rats; 0.3 and 3.0 mg/kg single i.v.
  effect on re-establishment of copulatory behavior: significant at doses of 0.3 and 3.0 mg/kg through day 28
morphine-dependent rats; 1 mg/kg i.v. once weekly for three weeks, tested one week after last injection
  naloxone-induced rise in TST: significantly attenuated
morphine-dependent rats; single 1 mg/kg i.v., tested one week after injection
  attenuation of naloxone-induced rise in TST: 25%
LH [2]; 0.1 mg/kg i.v. in 20% (w/v) HPβCD, castrated female rats (Brewster 1988)
  duration of LH suppression: 18 days
LH [2]; 0.5 mg/kg single i.v., day 12 (Estes 1987, Experiment 3)
  LH inhibition: heterogeneous results
LH [2]; 0.5 mg/kg single i.v., day 12 or 18 (Estes 1987, Experiment 4)
  LH compared to equimolar estradiol 17-valerate: significantly decreased by E2-CDS compared to estradiol valerate
LH [2]; 1.0 mg/kg i.v. single and multiple weekly doses (Rahimy 1991)
  plasma LH: significantly suppressed for single and multiple doses
LH [2]; 2 mg/kg single i.v., day 12 (Estes 1987, Experiment 3)
  serum LH decrease compared to vehicle: 75%
LH [2]; 5 mg/kg single i.v., day 12 (Estes 1987, Experiment 3)
  serum LH decrease compared to vehicle: 91%
LH [2]; multiple i.v. injections (7, every two days) 10 to 333 μg/kg (Anderson 1988)
  reduction in serum LH: 32-76%
LH [2]; single i.v. dose 10 μg/kg (Anderson 1988)
  reduction in serum LH: no effect
LH [2]; single i.v. dose 33 to 333 μg/kg, 2 days before sacrifice (Anderson 1988)
  reduction in serum LH: 39-52%
LH [3]; 3 mg/kg single i.v., 12, 18 and 24 days post-treatment
  LH levels: remained very significantly reduced
LH [3]; castrated male rats, 3 mg/kg i.v. studies
  duration of suppression of LH: at least 24 days
2OHE1/16OHE1; Group A
  increase of ratio of 2OHE1 to 16OHE1 during treatment: 63.6%
2OHE1/16OHE1; Group B
  increase of ratio of 2OHE1 to 16OHE1 during treatment: 54.7%
2OHE1/16OHE1; day 10-1, Group A
  difference of mean ratios, urine: 0.15
2OHE1/16OHE1; day 13-1, Group B
  difference of mean ratios, urine: 0.05
2OHE1/16OHE1; 10 day
  amount of urinary 16OHE1 relative to day 1: 2.48 times
2OHE1/16OHE1; 13 day
  amount of urinary 16OHE1 relative to day 1: 1.26 times

From patent US20050059645A1, “Methods for the treatment of male and female sexual dysfunction” (priority 2003, published 2005)
